From PMC11268479, “Delineation of the complete reaction cycle of a natural Diels–Alderase” (Chemical Science, 2024)
Several values for one entry are separate records, joined by “and”; a condition that tells them apart may be missing. Equal entries are not always repeated. Where two headings read alike, the source gives them in different places.

Key:
[1] = target: AbyU (Micromonospora maris); experiment: Single turnover stopped-flow kinetics of the AbyU catalysed conversion of 5 to 6 (excess enzyme, absorbance 325 nm); assay type: biochemical, Micromonospora maris AB-18-032; details: single turnover, 10 s, 20 °C, pH 7.5, 10% acetonitrile, eqn (2); read-out: Ki from substrate inhibition fit of kobs2 vs [5] (binding affinity for slower reacting species)
AbyU (Micromonospora maris), sequence (Z9P124SIT8 1-160 F95Y): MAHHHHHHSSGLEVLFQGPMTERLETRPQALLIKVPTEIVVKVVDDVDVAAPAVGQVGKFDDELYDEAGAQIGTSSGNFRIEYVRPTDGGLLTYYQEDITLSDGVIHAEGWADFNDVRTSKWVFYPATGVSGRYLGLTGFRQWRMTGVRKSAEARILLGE
Excerpt: (§1) To further investigate the AbyU catalysed reaction stopped-flow kinetic studies were undertaken employing substrate 5. […] This feature is lost upon cyclisation and thus constitutes a viable spectrophotometric probe to monitor the AbyU catalysed conversion of substrate 5 to product 6 (Fig. 1b). […] We assessed the quality of the fit from the plotted residuals.
(§2) As the concentration of 5 increases, a concomitant decrease in the rate constants kobs1 and kobs2 is observed. […] These different conformational populations cannot be individually resolved using ensemble kinetic measurements unless their rate constants differ by at least an order of magnitude, therefore, the observed rate constant reflects average behaviour. The relative equilibrium saturation constants observed for two different binding conformations can be obtained by examining the dependence of kobs2 on (Fig. 3b). From Fig. 3b, the data present as apparent substrate inhibition. In this case, we can envisage that the ‘slow’ reacting species effectively acts as a weak inhibitor relative to the ‘fast’ reacting species, thus presenting as apparent substrate inhibition.
(§3) It should be noted that the species reflected by the third exponential phase has a larger equilibrium constant than the faster reacting species, with a rate of reaction approximately 20-fold slower than the steady-state rate of the enzyme (Fig. S6 ^†). As it represents an insignificant component of the steady-state reaction, we have not analysed this phase any further.
(§4) Stopped-Flow (SF) experiments were performed using a Hi-Tech Scientific KinetAsyst Stopped-Flow System spectrophotometer (TgK Scientific, Bradford on Avon, UK). Both syringe 1 and 2 were washed with ddH2O and SF buffer (18 mM Tris–HCl, 135 mM NaCl, 10% acetonitrile, pH 7.5). 10% acetonitrile was maintained in both syringes at all times to ensure solubility of the substrate. The stop-flow was zeroed and references were taken using SF buffer in each syringe for burst phase kinetics. Purified recombinant AbyU in SEC buffer (20 mM Tris–HCl, 150 mM NaCl, pH 7.5), was diluted to a final concentration of 800 μM AbyU in SF buffer. This solution of AbyU was placed in syringe 1 to obtain references for the single turnover experiments. For the multiple turnover experiments, AbyU was added to syringe 1 at a concentration of 2 μM (diluted in SF buffer). Likewise, substrate 5 was diluted in SF buffer to double the reaction concentration and placed in syringe 2. 50 μL from each syringe was injected into the mixing chamber and measurement immediately commenced. Reactions were observed using a logarithmic timebase over either 1000 s or 10 s. For the 1000 s experiments, the timeframe was split into 15 cycles, each with 200 points, each of which was distributed in a logarithmic manner. This ensured a high number of readings in the first seconds of the experiment. […] This was compounded by the weak affinity of substrate 5 for the plastic components in the SF system, rendering it impossible to precisely replicate the concentration of 5 in the reaction chamber over multiple syringes. To measure the uncatalysed rate of substrate cyclisation, the stop flow was zeroed and references were taken using SF buffer in both syringes. Varying concentrations of substrate 5 were added to syringe 2 and measurements were taken using a linear time base over 10 seconds. All reactions were performed at 20 °C.
(§5) Results were fitted using Graphpad Prism. […]

AbyU [2] = target: T1, AbyU (Micromonospora maris, UniProt Z9P124SIT8, F95Y, form not given); experiment: as above; assay type: biochemical, Micromonospora maris AB-18-032
T1 sequence (Z9P124SIT8 1-160 F95Y): as above
Excerpt: as §1, §2, §3, §4, §5

AbyU [3] = target: T1, AbyU; experiment: Multiple turnover (burst phase) stopped-flow kinetics of the AbyU catalysed conversion of 5 to 6; assay type: biochemical, Micromonospora maris AB-18-032
Experimental: To formally identify the rate-limiting step in the AbyU catalysed cycloaddition reaction, a multiple turnover kinetics experiment was undertaken. The stopped-flow transients (Fig. 5a) reveal two distinguishable burst phases when fitted to eqn (3), a derivative of eqn (1), which incorporates a linear phase to account for multiple turnovers in the steady-state.3 [drawing 3]
When the data for kburst1 are fitted to eqn (4), kon and koff can be determined to be 0.88 ± 0.03 μM^−1 s^−1 and 3.4 ± 0.71 s^−1, for substrate binding and dissociation respectively, in this conformation.4 kburst1 = kburst1on[S] + kburst1off
The relationship between the slower burst phase, kburst2 and substrate concentration, in contrast, fits well to, and is highly representative of, a two-step binding interaction (eqn (5) (ref. [32])).5 kburst2 = 1/2(p − q)where:5.1 p = kburst2on1 × [S] + kburst2off1 + kburst2on2 + kburst2off25.2 [drawing 4] 5.3 r = kburst2on1 × [S] × kburst2on2 + kburst2off1 × kburst2off2 + kburst2on1 × [S] × kburst2off2
as §4
Results were fitted using Graphpad Prism. Data obtained before 2 ms was discarded, reflecting the dead-time of the instrument. Data were fit to equations as outlined in the text. The 10 s single turnover kinetic data were fitted to two exponentials with a sloping baseline (eqn (3)). […] To circumvent this, the data between 3 s and 10 s were separately fitted to a straight line to determine the initial rate of k3. In order to fully analyse the change in the reaction rate with respect to the concentration of 5, 3–6 transients at each substrate concentration were taken and the rate and amplitude parameters derived from the fit appropriate for each transient (Fig. S4 and S9 ^†). The background rate of reaction (Fig. S11 ^†) was removed from the steady-state reaction and from the linear portion of k3. The other exponential phases occur too rapidly for the background rate of reaction to have an appreciable influence on the data. […]

AbyU [4] = target: T1, AbyU; experiment: Steady-state kinetics of the AbyU catalysed conversion of 5 to 6 (Michaelis–Menten fit); assay type: biochemical, Micromonospora maris AB-18-032
Experimental: Fig. 5 Burst phase characterisation of the AbyU catalysed conversion of 5 to 6. (a) Example of the transient observed (blue) in the reaction of 54 μM 5 with 1 μM AbyU, shown on a logarithmic scale with a linear scale shown inset for comparison. The transient is fitted to eqn (3) (black line, see Fig. S9 ^† for fitting analysis). (b) The rate of turnover in each burst phase as a function of the concentration of 5. Data for kburst1 is fitted to a one-step binding model (eqn (4)) and kburst2 is fitted to a two-step binding model (eqn (5)). (c) Steady-state kinetics fitted to the Michaelis–Menten equation (eqn (S1) ^†). […] This is perhaps unsurprising, as the conformationally constricted product must by necessity dissociate from the ‘closed’ active site. Steady-state kinetics reveal the impact that product release has upon the overall rate. […] Stopped-Flow (SF) experiments were performed using a Hi-Tech Scientific KinetAsyst Stopped-Flow System spectrophotometer (TgK Scientific, Bradford on Avon, UK). […] This ensured a high number of readings in the first seconds of the experiment. […] The amplitude of the change in absorbance was converted to concentration using the following measured absorbance coefficient for substrate 5: ε325 nm = 13 200 M^−1 cm^−1 and the following measured absorbance coefficient for product 6: ε325 nm = 1085 M^−1 cm^−1. […]

[5] = Uncatalysed (spontaneous) cyclisation of substrate 5, stopped-flow; assay type: physicochemical; details: SF buffer, no enzyme, 10 s, 20 °C, pH 7.5, 10% acetonitrile
Experimental: Stopped-Flow (SF) experiments were performed using a Hi-Tech Scientific KinetAsyst Stopped-Flow System spectrophotometer (TgK Scientific, Bradford on Avon, UK). Both syringe 1 and 2 were washed with ddH2O and SF buffer (18 mM Tris–HCl, 135 mM NaCl, 10% acetonitrile, pH 7.5). 10% acetonitrile was maintained in both syringes at all times to ensure solubility of the substrate. The stop-flow was zeroed and references were taken using SF buffer in each syringe for burst phase kinetics. Purified recombinant AbyU in SEC buffer (20 mM Tris–HCl, 150 mM NaCl, pH 7.5), was diluted to a final concentration of 800 μM AbyU in SF buffer. […] This ensured a high number of readings in the first seconds of the experiment. […]
Results were fitted using Graphpad Prism. […] The amplitude of the change in absorbance was converted to concentration using the following measured absorbance coefficient for substrate 5: ε325 nm = 13 200 M^−1 cm^−1 and the following measured absorbance coefficient for product 6: ε325 nm = 1085 M^−1 cm^−1. […] Initial concentrations of substrate 5 were calculated from the absorbance at t = 0, to account for uncatalysed substrate turnover, and the tendency of the substrate to have a weak affinity with the plastic present in the stop-flow apparatus. […] The slope of the line was determined for each substrate concentration and averaged over 3–5 repeats.

[6] = burst phase 1, eqn (4), 20 °C, pH 7.5
[7] = burst phase 2, two-step binding, eqn (5), 20 °C, pH 7.5

## C=C1OC(=O)C(C(=O)[C@H](C)C[C@H](C)C(=O)/C=C/C=C/C=C/C)=C1OC [compound 5]
[1]
  Ki: 54.9 ± 14.5 µM
AbyU [2]; binding in ES3 conformation (third phase), 20 °C, pH 7.5
  k3: ≈5.7 × 10^−4 ± 3.8 × 10^−5 μM^−1 s^−1
AbyU [2]; dissociation from ES3 conformation (third phase), 20 °C, pH 7.5
  k−3: ≈6.9 × 10^−3 ± 1.9 × 10^−3 s^−1
AbyU [2]; ratio
  rate of third exponential phase slower than the steady-state rate of the enzyme: approximately 20 fold
AbyU [2]; single turnover, 10 s, 20 °C, pH 7.5, 10% acetonitrile, eqn (2), read-out: Km from substrate inhibition fit of kobs2 vs [5] (approximation of binding affinity for faster-reacting conformation(s))
  Km: 13.2 ± 3.2 µM
AbyU [3]; 20 °C, pH 7.5
  k5 (cyclisation once substrate is bound): N.D. (very quick)
AbyU [3]; apparent binding constant, two-step route, read-out: Kapp = K2 × K4
  Kd: 1.3 µM
AbyU [3]; binding constant, ES2 conformation, read-out: K2 = k−2/k2
  Kd: 1.97 ± 4.24 µM
AbyU [3]; binding constant, ES conformation, read-out: K1 = k−1/k1
  Kd: 3.86 ± 0.94 µM
AbyU [3]; [6]
  k1 (kon, kburst1, substrate binding, one-step): 880000 ± 30000 M⁻¹ s⁻¹
  k−1 (koff, kburst1, substrate dissociation): 3.4 ± 0.71 s⁻¹ and 3.41 ± 0.71 s⁻¹
AbyU [3]; [7]
  k2 (on rate, kburst2, sub-optimal conformation): 360000 ± 460000 M⁻¹ s⁻¹
  k4 (rearrangement within active site to most productive conformation): 1.37 ± 2.38 s⁻¹
  k−2 (off rate, kburst2, sub-optimal conformation): 0.71 ± 0.62 s⁻¹
AbyU [3]; burst phase 2, two-step binding, reverse rearrangement, 20 °C, pH 7.5
  k−4: 0.90 ± 2.29 s⁻¹
AbyU [3]; equilibrium constant of rearrangement
  K4 (k−4/k4): 0.66 ± 2.81
AbyU [4]; ratio
  kcat slower than the initial rate of kburst1: around 230 times
AbyU [4]; steady-state, 20 °C, pH 7.5, 10% acetonitrile
  kcat: 0.116 ± 0.005 s⁻¹
[5]
  kspont (spontaneous cyclisation of 5): 1250 ± 17 M⁻¹ s⁻¹
